Laboratory results reported in patent publication EP0802730B1, “PESTICIDAL COMPOUNDS” (BTG INTERNATIONAL LIMITED, priority 1995, dated 1996).
Converted amounts (≈) assume the structure as drawn. Like-named read-outs stand apart in the source and are kept apart here.

How the values were obtained:
[1] = test system: Pyricularia oryzae (=Magnaporthe grisea); type: cell-based; settings: P. oryzae, 7 days
Rhizoctonia solani = assay: Fungitoxicity in vitro on potato dextrose agar; type: cell-based; settings: R. solani, 4 days
[2] = test system: Mustard beetles (PC) (Phaedon cochleariae Fab); type: in vivo; settings: NA = lack of detectable activity; for PC (LD50): 1 µl acetone drop applied ventrally to adults, kill at 48 hours; for PC LD50 (µg/insect): Tables 10, 13, 14
Experimental: A one microlitre drop of an acetone solution of the test compound was applied ventrally to adult mustard beetles using a micro drop applicator. The treated insects were maintained for 48 hours after which time kill was assessed. Two replicates each of 20 to 25 mustard beetles were used at each dose level and 5 dose levels were treated comparably. LD50 values were calculated as for houseflies.

[3] = test system: Whitefly (BT) (Bemisia tabaci), susceptible strain (SUD-S); assay: Whitefly residual film vial test, susceptible strain SUD-S; type: in vivo
Experimental: (§1) Acetone solutions (0.100 ml) of the test compounds were placed in 10 ml glass vials and evaporated with rotation to deposit a film of the compound. Thirty adult whiteflies were placed inside the vial, then after 60 minutes, the treated insects were transferred onto untreated cotton leaf discs which were kept moist on a bed of agar gel. The temperature was maintained at 25°C and mortality assessed after 48 hours. Three replicates were used at each of 5 to 7 dose levels per compound.

[4] = test system: Houseflies (MD) (Musca domestica); type: in vivo; settings: for MD (LD50): topical 1 µl drop in acetone on female flies, kill assessed 24 and 48 hours; for MD LD50 (µg/insect): Tables 10, 13, 14, NA = lack of detectable activity
Experimental: Female flies were treated on the thorax with a one microlitre drop of test compound dissolved in acetone. Two replicates of 15 flies were used at each dose rate and 6 dose rates were used per compound under test. After treatment, the flies were maintained at a temperature of 20° ± 1°C and kill was assessed 24 and 48 hours after treatment. LD50 values were calculated in micrograms of test compound per fly (see Sawicki et al., Bulletin of the World Health Organisation, 35, 893 (1966) and Sawicki et al., Entomologia and Exp. Appli 10, 253, (1967).

[5] = test system: Mites (TU) (Tetranychus urticae), susceptible strain (GSS); assay: Mite immersion test, susceptible strain GSS; type: in vivo
Experimental: (§2) 25 adult female mites were immersed in 35 µl of a solution of the test compound in a 1:4 acetone-water mixture for 30 seconds. The treated insects were maintained at 21° ± 2°C and kill was assessed 72 hours after treatment. […] Three replicates of 25 mites each were used at each dose rate and 5 or 6 dose rates were used per compound under test. LC50 values were calculated in ppm of the solution of the test compound per insect. The test was carried out using a susceptible strain of mites (GSS) supplied by Schering, AG, Berlin.

[6] = test system: resistant whitefly (BT) (Bemisia tabaci), Ned 7; assay: Whitefly vial test, resistant strain Ned 7; type: in vivo; settings: 48 h, read-out: BT (Ned 7) (LC50)
Experimental: as §1, with “per compound. LC50 values (ppm solution) were calculated by using a computer software package ("Polo-PC available from LeOra Software, Berkeley, California) (See M.R. Cahill and B. Hackett in Proceedings Brighton Crop Protection Conference, 1992). The test was carried out using a susceptible strain of whitefly (SUD-S) which was collected in Sudan in 1978 from cotton.” for “per compound.”
The test of Example 16 (BT (SUD-S)) was repeated using a resistant strain of whitefly (Ned 7). The Ned 7 strain was collected in the Netherlands in April, 1993 from hibiscus by J. Fransen and is highly resistant to organophosphate and carbamate insecticides and the insect growth regulator buprofezin.

[7] = test system: Myzus persicae, susceptible strain (US1L); assay: Aphid dip test, susceptible strain; type: in vivo
Experimental: Activity against resistant (R) and susceptible (S) strains of aphid (Myzus persicae) was assessed using the following method.
Entrapment rings of fluon were painted halfway up the inside of 4 cm lengths of glass tubing (1.5 cm diameter), and squares of insect-proof gauze were attached to one end of each tube by elastic bands. Fifteen apterous adults were then gently transferred into the tubes using a sable-hair brush, and the tube sealed with a second gauze square.
Tubes containing aphids were dipped into insecticide solutions for 10 seconds, dried on blotting paper, and then inverted and tapped to cause treated aphids to fall to the unimmersed end of each tube. Handling mortality (usually zero or very slight) was scored after 1 hour, when aphids were transferred onto chinese cabbage leaf-discs (35 mm diameter) on an agar bed (25 mm in depth) in disposible plastic containers (30 mm high) and confined by applying a ring of fluon to the exposed lip of the container. Containers were store upright, without lids, in a constant environment facility maintained at 25°C under continuous room lighting. Mortality was assessed at 24, 48 and 72 hours. Two replicates of 15 aphids each were used at each dose rate and 5 or 6 dose rates were used per compound under test.
The test was carried out using a susceptible strain of aphids (US1L) collected in the field in East Anglia, UK and an extremely resistant strain of aphids (794Jz) (R3 esterase, sensitive AChE) collected from glasshouses in the UK.
The values given are % mortality corrected for control data. The control comprised the test solution without active ingredient.

[8] = test system: resistant mites (TU) (Tetranychus urticae), NYR-Bif-1000; assay: Mite immersion test, bifenthrin-resistant strain; type: in vivo; settings: 72 h, read-out: TU (NYR-Bif-1000) (LC50)
Experimental: as §2
The test of Example 16 (TU(GSS)) was repeated using a strain of mites which is resistant to bifenthrin (NYR-Bif-1000). The NYR-Bif-1000 strain was provided by the Department of Entomology, Cornell University, New York.

Aspergillus niger = assay: Fungitoxicity in vitro on potato dextrose agar; type: cell-based; settings: A. niger, 4 days
[9] = test system: Diamond-back moth (PX) (Plutella xylostella); assay: Diamond-back moth larvae topical test (failure to pupate); type: in vivo; settings: fifth instar larvae, 0.5 µl drop; failure to pupate 5 days later
Experimental: Fifth instar larvae were treated with a 0.5 µl drop of test compound in acetone. Three replicates of 10 larvae each were used at each dose rate and 5 dose rates were used per compound under test. After treatment, the larvae were maintained at about 22°C, and kill was assessed as failure to pupate 5 days later. LD50 values were calculated as for houseflies.

[10] = ppm solution of test compound, 60 minutes film exposure, mortality after 48 hours, read-out: BT(SUD-S) (LC50)
[11] = ppm solution of test compound, 30 seconds immersion, kill at 72 hours, read-out: TU(GSS) (LC50)
[12] = strain S, 100 PPM, read-out: % mortality corrected for control data
[13] = strain S, read-out: % mortality corrected for control data
[14] = 48 h, Tables 10, 13, 14, susceptible strain, NA = lack of detectable activity, read-out: BT LC50 (ppm/insect)
[15] = 72 h, Tables 10, 13, 14, susceptible strain, NA = lack of detectable activity, read-out: TU LC50 (ppm/insect)

COC(=O)Nc1nc2ccccc2[nH]1 [Carbendazim, carbendazim, reference compound]
% inhibition of growth in colony diameter in agar plates, Activity at 1 mg 1^-1 ([1]; 1 mg 1^-1): 14.7% | % inhibition of growth in colony diameter in agar plates, Activity at 5 mg 1^-1 ([1]; 5 mg 1^-1): 99.8% | % inhibition of growth in colony diameter in agar plates, Activity at 1 mg 1^-1 (Rhizoctonia solani; 1 mg 1^-1): 3.3% | % inhibition of growth in colony diameter in agar plates, Activity at 5 mg 1^-1 (Rhizoctonia solani; 5 mg 1^-1): 82.4%

CCCCCCCCCCCCC1=C(OC(C)=O)C(=O)c2ccccc2C1=O [Compound A, 2-n-dodecyl-3-ethanoyloxynaphthalene-1,4-dione, reference compound]
PC (LD50) [2]: 0.36 µg/insect | LC50 [3, 10]: 82 µg/mL (≈ 213 µM) | MD (LD50) [4]: >> 20 µg/insect | LC50 [5, 11]: 64 µg/mL (≈ 166 µM) | LC50 [6]: 470 µg/mL (≈ 1220 µM)

CCC(C)(C)C1=C(O)C(=O)c2ccccc2C1=O [Example 1, 2-(1,1-dimethylpropyl)-3-hydroxynaphthalene-1,4-dione]
mortality at 100 ppm [7, 12]: 11% | mortality at 250 ppm [7, 13]: 26% | % inhibition of growth in colony diameter in agar plates, Activity at 100 mg 1^-1 [1]: 100% | PC (LD50) [2]: c. 10 µg/insect | LC50 [3, 10]: 19 µg/mL (≈ 77.8 µM) | MD (LD50) [4]: < 10 µg/insect | LC50 [5, 11]: 39 µg/mL (≈ 160 µM) | LC50 [8]: 84 µg/mL (≈ 344 µM) | % inhibition of growth in colony diameter in agar plates, Activity at 100 mg 1^-1 (Rhizoctonia solani): 95% | % inhibition of growth in colony diameter in agar plates, Activity at 100 mg 1^-1 (Aspergillus niger): 63%

CCC(C)(C)C1=C(OC(C)=O)C(=O)c2ccccc2C1=O [Example 2, 2-(1,1-dimethylpropyl)-3-ethanoyloxy-naphthalene-1,4-dione]
mortality at 40 ppm ([7]; strain S, 40 PPM, read-out: % mortality corrected for control data): 20% | mortality at 250 ppm [7, 13]: 27% | % inhibition of growth in colony diameter in agar plates, Activity at 100 mg 1^-1 [1]: 89% | PC (LD50) [2]: c. 6.0 µg/insect | LC50 [3, 10]: 4.8 µg/mL (≈ 16.8 µM) | MD (LD50) [4]: < 10 µg/insect | PX (LD50) [9]: c. 10 µg/insect | LC50 [5, 11]: 64 µg/mL (≈ 224 µM) | LC50 [8]: 83 µg/mL (≈ 290 µM) | % inhibition of growth in colony diameter in agar plates, Activity at 100 mg 1^-1 (Rhizoctonia solani): 81% | % inhibition of growth in colony diameter in agar plates, Activity at 100 mg 1^-1 (Aspergillus niger): 38%

CC(C)(C)C1=C(O)C(=O)c2ccccc2C1=O [Example 3, 2-(t-butyl)-3-hydroxy-naphthalene-1,4-dione]
mortality at 100 ppm [7, 12]: 27% | mortality at 250 ppm [7, 13]: 87% | % inhibition of growth in colony diameter in agar plates, Activity at 100 mg 1^-1 [1]: 100% | PC (LD50) [2]: c. 6.0 µg/insect | LC50 [3, 10]: 8 µg/mL (≈ 34.7 µM) | MD (LD50) [4]: c. 2.5 µg/insect | PX (LD50) [9]: c. 8.0 µg/insect | LC50 [5, 11]: 81 µg/mL (≈ 352 µM) | % inhibition of growth in colony diameter in agar plates, Activity at 100 mg 1^-1 (Rhizoctonia solani): 92% | % inhibition of growth in colony diameter in agar plates, Activity at 100 mg 1^-1 (Aspergillus niger): 61%

C=CC(C)(C)C1=C(OC(=O)CCC)C(=O)c2ccccc2C1=O [Example 5]
PC (LD50) [2]: 6.9 µg/insect | LC50 [3, 10]: 13 µg/mL (≈ 41.6 µM) | LC50 [5, 11]: 84 µg/mL (≈ 269 µM) | LC50 ([6]; resistant strain Ned 7, ppm solution of test compound): 21 µg/mL (≈ 67.2 µM)

C=CC(C)(C)C1=C(OC(=O)CCCCCCCCC)C(=O)c2ccccc2C1=O [Example 8]
PC (LD50) [2]: c. 8.0 µg/insect | PX (LD50) [9]: c. 0.1 µg/insect | LC50 [5, 11]: 630 µg/mL (≈ 1590 µM)

C=CC(C)(C)C1=C(OCc2ccccc2)C(=O)c2ccccc2C1=O [Example 13]
PC (LD50) [2]: > 20 µg/insect | LC50 [3, 10]: > 1000 µg/mL | MD (LD50) [4]: > 20 µg/insect | PX (LD50) [9]: c. 8.0 µg/insect | LC50 [5, 11]: > 1000 µg/mL

CC(=O)OC1=C(CC2(C)CCCCC2)C(=O)c2ccccc2C1=O [Example 33, 2-acetoxy-3-((1'-methylcyclohexyl)-methyl)-naphthalene-1,4-dione]
mortality at 100 ppm ([7]; read-out: MP % kill 100 ppm): 30% | PC LD50 (µg/insect) [2]: 2.8 µg/insect | LC50 [3, 14]: 5.1 µg/mL (≈ 15.6 µM) | MD LD50 (µg/insect) [4]: 5.7 µg/insect | LC50 [5, 15]: 2.3 µg/mL (≈ 7.05 µM)

CC(C)(C)CCCCC1=C(O)C(=O)c2ccccc2C1=O [Example 38, 2-(5,5-dimethylhexyl)-3-hydroxy-naphthalene-1,4-dione]
mortality at 100 ppm ([7]; read-out: MP % kill 100 ppm): ~100% | PC LD50 (µg/insect) [2]: c8 µg/insect | LC50 [3, 14]: ~60 µg/mL (≈ 210 µM) | MD LD50 (µg/insect) [4]: 5.3 µg/insect | LC50 [5, 15]: 3.5 µg/mL (≈ 12.2 µM)

CC(=O)OC1=C(CCC(C)(C)C)C(=O)c2ccccc2C1=O [Example 47, 2-ethanoyloxy-3-(3,3-dimethylbutyl)-naphthalene-1,4-dione]
mortality at 100 ppm ([7]; read-out: MP % kill 100 ppm): ~100% | PC LD50 (µg/insect) [2]: c1 µg/insect | LC50 [3, 14]: 2.1 µg/mL (≈ 6.99 µM) | MD LD50 (µg/insect) [4]: 2.2 µg/insect | LC50 [5, 15]: ~20 µg/mL (≈ 66.6 µM)

CCCN(CCOc1c(Cl)cc(Cl)cc1Cl)C(=O)n1ccnc1 [Prochloraz, prochloraz, reference compound]
% inhibition of growth in colony diameter in agar plates, Activity at 1 mg 1^-1 (Aspergillus niger; 1 mg 1^-1): 97.8%
